Measurements published in ChEMBL document CHEMBL1201862, “PubChem BioAssay data set” (2004).
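1) Cells in 96-well plates. 2) Compound, 48 h, 5 concentrations. 3) Linear interpolation between surrounding doses. 4) Unreached endpoint = highest concentration. GI50 is the concentration that inhibits growth by half.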 Active and inactive are the calls of the source. Rule as the data show it: active = GI50 up to about 1.1 µM and inactive = higher.

How the values were obtained:
Test in all cases: growth of human tumour cells (NCI), 48 h
CCRF-CEM = test system: CCRF-CEM
RPMI-8226 = test system: RPMI-8226
SNB-75 = test system: SNB-75
NCI/ADR-RES = test system: NCI/ADR-RES
SR = test system: SR
SF-268 = test system: SF-268
SK-OV-3 = test system: SK-OV-3
786-0 = test system: 786-0
ACHN = test system: ACHN
OVCAR-8 = test system: OVCAR-8
EKVX = test system: EKVX
UO-31 = test system: UO-31
NCI-H226 = test system: NCI-H226
LOX IMVI = test system: LOX IMVI
SNB-19 = test system: SNB-19
COLO 205 = test system: COLO 205
HCT-15 = test system: HCT-15
HL-60 = test system: HL-60
SK-MEL-28 = test system: SK-MEL-28
OVCAR-3 = test system: OVCAR-3

| Structure (SMILES) | GI50 (CCRF-CEM) | GI50 (RPMI-8226) | GI50 (SNB-75) | GI50 (NCI/ADR-RES) | GI50 (SR) | GI50 (SF-268) | GI50 (SK-OV-3) | GI50 (786-0) | GI50 (ACHN) | GI50 (OVCAR-8) | GI50 (EKVX) | GI50 (UO-31) | GI50 (NCI-H226) | GI50 (LOX IMVI) | GI50 (SNB-19) | GI50 (COLO 205) | GI50 (HCT-15) [µM] | GI50 (HL-60) | GI50 (SK-MEL-28) | GI50 (OVCAR-3) |
| --- | --- | --- | --- | --- | --- | --- | --- | --- | --- | --- | --- | --- | --- | --- | --- | --- | --- | --- | --- | --- |
| C=CC(=O)N1C/C(=C\c2ccccc2)C(=O)/C(=C/c2ccccc2)C1 | 0.351 µM (active) | 0.0462 µM (active) | 3.24 µM (inactive) | 1.93 µM (inactive) | 0.476 µM (active) | 1.97 µM (inactive) | 2.58 µM (inactive) | 1.06 µM (active) | 1.83 µM (inactive) | 1.3 µM (inactive) | 3.47 µM (inactive) | 1.77 µM (inactive) | 3.85 µM (inactive) | 0.254 µM (active) | 2.54 µM (inactive) | 1.83 µM (inactive) | 1.18 | 0.71 µM (active) | 1.82 µM (inactive) | 1.48 µM (inactive) |
| CC(=O)OCCN1c2ccccc2Sc2cnccc21 | > 10 µM (inactive) | > 10 µM (inactive) | 9.38 µM (inactive) | > 10 µM (inactive) | > 10 µM (inactive) | > 10 µM (inactive) | > 10 µM (inactive) | > 10 µM (inactive) | > 10 µM (inactive) | > 10 µM (inactive) | 8.55 µM (inactive) | > 10 µM (inactive) | > 10 µM (inactive) | > 10 µM (inactive) | > 10 µM (inactive) | > 10 µM (inactive) | > 10 | > 10 µM (inactive) | > 10 µM (inactive) | > 10 µM (inactive) |
| C=CO/N=[N+](\[O-])N(CC)CC | > 100 µM (inactive) | > 100 µM (inactive) | > 100 µM (inactive) | > 100 µM (inactive) | > 100 µM (inactive) | > 100 µM (inactive) | > 100 µM (inactive) | > 100 µM (inactive) | > 100 µM (inactive) | > 100 µM (inactive) | > 100 µM (inactive) |  | > 100 µM (inactive) | > 100 µM (inactive) | > 100 µM (inactive) | > 100 µM (inactive) | > 100 | > 100 µM (inactive) | > 100 µM (inactive) | > 100 µM (inactive) |
| NCCCc1nonc1C(=O)O | > 100 µM (inactive) | > 100 µM (inactive) | > 100 µM (inactive) | > 100 µM (inactive) | > 100 µM (inactive) | > 100 µM (inactive) | > 100 µM (inactive) | > 100 µM (inactive) | > 100 µM (inactive) | > 100 µM (inactive) | > 100 µM (inactive) | > 100 µM (inactive) | > 100 µM (inactive) | > 100 µM (inactive) | > 100 µM (inactive) | > 100 µM (inactive) | > 100 | > 100 µM (inactive) | > 100 µM (inactive) | > 100 µM (inactive) |
| CCOC(=O)NC(C(F)(F)F)(C(F)(F)F)P(=O)(OCC)OCC | 2.71 µM (inactive) | 24 µM (inactive) | 19.9 µM (inactive) | 36.7 µM (inactive) | > 10 µM (inactive) | 42.6 µM (inactive) | 34.9 µM (inactive) | 45.2 µM (inactive) | 35.9 µM (inactive) | 36.6 µM (inactive) |  | 24.3 µM (inactive) | 54.1 µM (inactive) | 12.4 µM (inactive) | 36.1 µM (inactive) | 38.6 µM (inactive) | 28.8 | 65.2 µM (inactive) | 43.4 µM (inactive) | 45.2 µM (inactive) |
| CC1=NN(c2nc(N)nc(CBr)n2)C(C)(C)C1 | 0.229 µM (active) | 1.13 µM (inactive) | 9.75 µM (inactive) | 17.7 µM (inactive) | 2.88 µM (inactive) | 6.01 µM (inactive) | 17.3 µM (inactive) | 0.692 µM (active) | 3.56 µM (inactive) | 5.45 µM (inactive) | 3.66 µM (inactive) | 0.384 µM (active) | 2.61 µM (inactive) | 0.708 µM (active) | 16.7 µM (inactive) | 3.03 µM (inactive) | 3.61 | 0.975 µM (active) | 13.7 µM (inactive) | 3.42 µM (inactive) |
| CCC(=O)C(C(C)/C=C/CCSc1ccccc1)C(O)CCCCCC(=O)OC (stereo unspecified) | 38.6 µM (inactive) | > 100 µM (inactive) | > 100 µM (inactive) | 99.5 µM (inactive) | 32.9 µM (inactive) | > 100 µM (inactive) | > 100 µM (inactive) | > 100 µM (inactive) | > 100 µM (inactive) | > 100 µM (inactive) | > 100 µM (inactive) | > 100 µM (inactive) | > 100 µM (inactive) | 81.3 µM (inactive) | > 100 µM (inactive) | > 100 µM (inactive) | 88.7 |  | > 100 µM (inactive) | > 100 µM (inactive) |
| COC(=O)CCCC(=O)NC1=C(Nc2ccc(OC)cc2)C(=O)c2ccccc2C1=O | 20.8 µM (inactive) | 26.4 µM (inactive) | 32.2 µM (inactive) | 21.9 µM (inactive) | 33.1 µM (inactive) | 45.6 µM (inactive) | 34.1 µM (inactive) | 34.6 µM (inactive) | 28 µM (inactive) | 31 µM (inactive) | 21.9 µM (inactive) | 46.2 µM (inactive) |  | 25.9 µM (inactive) | 42.7 µM (inactive) | 25.4 µM (inactive) | 23.8 | 21.7 µM (inactive) | 20.9 µM (inactive) | 6.25 µM (inactive) |
| CC(C)(CN)SCc1ccccc1 | > 100 µM (inactive) | > 100 µM (inactive) | > 100 µM (inactive) | > 100 µM (inactive) | > 100 µM (inactive) | > 100 µM (inactive) | > 100 µM (inactive) | > 100 µM (inactive) | > 100 µM (inactive) | > 100 µM (inactive) | > 100 µM (inactive) | > 100 µM (inactive) | > 100 µM (inactive) | > 100 µM (inactive) | > 100 µM (inactive) | > 100 µM (inactive) | > 100 | > 100 µM (inactive) | > 100 µM (inactive) | > 100 µM (inactive) |
| Nc1ncnc2c1ncn2CC(O)C(=O)O (stereo unspecified) | > 100 µM (inactive) | > 100 µM (inactive) | > 100 µM (inactive) | > 100 µM (inactive) | > 100 µM (inactive) | > 100 µM (inactive) | > 100 µM (inactive) | > 100 µM (inactive) | > 100 µM (inactive) | > 100 µM (inactive) | > 100 µM (inactive) | > 100 µM (inactive) | > 100 µM (inactive) | > 100 µM (inactive) | > 100 µM (inactive) | > 100 µM (inactive) | > 100 | > 100 µM (inactive) | > 100 µM (inactive) | > 100 µM (inactive) |
| COc1cccc(C2CC(C)(N3CCCC3)Oc3cc4c(cc32)OCO4)c1O (stereo unspecified) | 15.2 µM (inactive) | 21.3 µM (inactive) | 15.5 µM (inactive) | 20.8 µM (inactive) | 3.81 µM (inactive) | 30.3 µM (inactive) | 29.6 µM (inactive) | 32.8 µM (inactive) | 36.7 µM (inactive) | 30.2 µM (inactive) | 63.2 µM (inactive) | 32.5 µM (inactive) | 19.1 µM (inactive) | 28.8 µM (inactive) | 37.6 µM (inactive) | 19.1 µM (inactive) | 11.3 | 15.4 µM (inactive) | 22.5 µM (inactive) | 20 µM (inactive) |
| CC(=O)OCC1OC(N2C(=O)CC(N)=Nc3ccccc32)C(OC(C)=O)C(OC(C)=O)C1OC(C)=O (stereo unspecified) | > 100 µM (inactive) | 14.4 µM (inactive) | 29.8 µM (inactive) | 45.3 µM (inactive) | 41 µM (inactive) | 45.4 µM (inactive) | > 100 µM (inactive) | > 100 µM (inactive) | 66.5 µM (inactive) | 32.4 µM (inactive) | 83.2 µM (inactive) | > 100 µM (inactive) |  | 37.5 µM (inactive) | > 100 µM (inactive) | 15.1 µM (inactive) | 44.8 | 67.3 µM (inactive) | 38.4 µM (inactive) | 52.6 µM (inactive) |
| Cc1n[nH]c(=O)n1C1CCCC1 | > 100 µM (inactive) | > 100 µM (inactive) | > 100 µM (inactive) | > 100 µM (inactive) | > 100 µM (inactive) | > 100 µM (inactive) |  | > 100 µM (inactive) | > 100 µM (inactive) | > 100 µM (inactive) | > 100 µM (inactive) | > 100 µM (inactive) | > 100 µM (inactive) | > 100 µM (inactive) | > 100 µM (inactive) | > 100 µM (inactive) | > 100 | > 100 µM (inactive) | > 100 µM (inactive) | > 100 µM (inactive) |
| C[N+]1(CCC[N+]2(C)CC3C4C=CC(CC4)C3C2)CCOCC1 (stereo unspecified) | > 100 µM (inactive) | > 100 µM (inactive) | > 100 µM (inactive) | > 100 µM (inactive) | > 100 µM (inactive) | > 100 µM (inactive) | > 100 µM (inactive) | > 100 µM (inactive) | > 100 µM (inactive) | > 100 µM (inactive) | > 100 µM (inactive) | > 100 µM (inactive) | > 100 µM (inactive) | > 100 µM (inactive) | > 100 µM (inactive) | > 100 µM (inactive) | > 100 | > 100 µM (inactive) | > 100 µM (inactive) | > 100 µM (inactive) |
| CC12CCC(CC1)C(C)(C)O2 [EUCALYPTOL] |  | 23.4 µM (inactive) | 39.3 µM (inactive) | 45.2 µM (inactive) | > 100 µM (inactive) | 42 µM (inactive) | 57.5 µM (inactive) | > 100 µM (inactive) | > 100 µM (inactive) | 24.4 µM (inactive) | 38 µM (inactive) | 27.7 µM (inactive) |  | 7.43 µM (inactive) |  | 18.6 µM (inactive) | 12.1 | 17.1 µM (inactive) | 62.4 µM (inactive) | 36.1 µM (inactive) |
